For 25 compounds, IC50 results are on record in US10246453B2, “Benzenesulfonamide compounds and their use as therapeutic agents” (Xenon Pharmaceuticals Inc., priority 2016, dated 2019).

One data set has as its target NaV1.5 (Homo sapiens (Human), UniProt Q14524). Kind of data set: Sodium Influx Assay (Flux), NaV1.5. The note with it: read-out: Flux NaV1.5 IC50; Trex HEK293 cells, ANG2 dye; arithmetic mean.
The target of a further data set is NaV1.6 (Homo sapiens (Human), UniProt Q9UQD0). As to the kind of experiment: Sodium Influx Assay (Flux), NaV1.6. The note with it: read-out: Flux NaV1.6 IC50; Trex HEK293 cells, ANG2 dye; arithmetic mean.
The target of another data set is NaV1.1 (Homo sapiens (Human), UniProt P35498). Kind of data set: Sodium Influx Assay (Flux), NaV1.1. The class given is cell-based. As to conditions: Trex HEK293 cells, ANG2 dye; arithmetic mean.

SMILES strings stand for the structures. Where a name gives a salt, the structure may show the parent alone.

Chain of NaV1.5 (Q14524 other isoform, or with tags, fused parts or gaps): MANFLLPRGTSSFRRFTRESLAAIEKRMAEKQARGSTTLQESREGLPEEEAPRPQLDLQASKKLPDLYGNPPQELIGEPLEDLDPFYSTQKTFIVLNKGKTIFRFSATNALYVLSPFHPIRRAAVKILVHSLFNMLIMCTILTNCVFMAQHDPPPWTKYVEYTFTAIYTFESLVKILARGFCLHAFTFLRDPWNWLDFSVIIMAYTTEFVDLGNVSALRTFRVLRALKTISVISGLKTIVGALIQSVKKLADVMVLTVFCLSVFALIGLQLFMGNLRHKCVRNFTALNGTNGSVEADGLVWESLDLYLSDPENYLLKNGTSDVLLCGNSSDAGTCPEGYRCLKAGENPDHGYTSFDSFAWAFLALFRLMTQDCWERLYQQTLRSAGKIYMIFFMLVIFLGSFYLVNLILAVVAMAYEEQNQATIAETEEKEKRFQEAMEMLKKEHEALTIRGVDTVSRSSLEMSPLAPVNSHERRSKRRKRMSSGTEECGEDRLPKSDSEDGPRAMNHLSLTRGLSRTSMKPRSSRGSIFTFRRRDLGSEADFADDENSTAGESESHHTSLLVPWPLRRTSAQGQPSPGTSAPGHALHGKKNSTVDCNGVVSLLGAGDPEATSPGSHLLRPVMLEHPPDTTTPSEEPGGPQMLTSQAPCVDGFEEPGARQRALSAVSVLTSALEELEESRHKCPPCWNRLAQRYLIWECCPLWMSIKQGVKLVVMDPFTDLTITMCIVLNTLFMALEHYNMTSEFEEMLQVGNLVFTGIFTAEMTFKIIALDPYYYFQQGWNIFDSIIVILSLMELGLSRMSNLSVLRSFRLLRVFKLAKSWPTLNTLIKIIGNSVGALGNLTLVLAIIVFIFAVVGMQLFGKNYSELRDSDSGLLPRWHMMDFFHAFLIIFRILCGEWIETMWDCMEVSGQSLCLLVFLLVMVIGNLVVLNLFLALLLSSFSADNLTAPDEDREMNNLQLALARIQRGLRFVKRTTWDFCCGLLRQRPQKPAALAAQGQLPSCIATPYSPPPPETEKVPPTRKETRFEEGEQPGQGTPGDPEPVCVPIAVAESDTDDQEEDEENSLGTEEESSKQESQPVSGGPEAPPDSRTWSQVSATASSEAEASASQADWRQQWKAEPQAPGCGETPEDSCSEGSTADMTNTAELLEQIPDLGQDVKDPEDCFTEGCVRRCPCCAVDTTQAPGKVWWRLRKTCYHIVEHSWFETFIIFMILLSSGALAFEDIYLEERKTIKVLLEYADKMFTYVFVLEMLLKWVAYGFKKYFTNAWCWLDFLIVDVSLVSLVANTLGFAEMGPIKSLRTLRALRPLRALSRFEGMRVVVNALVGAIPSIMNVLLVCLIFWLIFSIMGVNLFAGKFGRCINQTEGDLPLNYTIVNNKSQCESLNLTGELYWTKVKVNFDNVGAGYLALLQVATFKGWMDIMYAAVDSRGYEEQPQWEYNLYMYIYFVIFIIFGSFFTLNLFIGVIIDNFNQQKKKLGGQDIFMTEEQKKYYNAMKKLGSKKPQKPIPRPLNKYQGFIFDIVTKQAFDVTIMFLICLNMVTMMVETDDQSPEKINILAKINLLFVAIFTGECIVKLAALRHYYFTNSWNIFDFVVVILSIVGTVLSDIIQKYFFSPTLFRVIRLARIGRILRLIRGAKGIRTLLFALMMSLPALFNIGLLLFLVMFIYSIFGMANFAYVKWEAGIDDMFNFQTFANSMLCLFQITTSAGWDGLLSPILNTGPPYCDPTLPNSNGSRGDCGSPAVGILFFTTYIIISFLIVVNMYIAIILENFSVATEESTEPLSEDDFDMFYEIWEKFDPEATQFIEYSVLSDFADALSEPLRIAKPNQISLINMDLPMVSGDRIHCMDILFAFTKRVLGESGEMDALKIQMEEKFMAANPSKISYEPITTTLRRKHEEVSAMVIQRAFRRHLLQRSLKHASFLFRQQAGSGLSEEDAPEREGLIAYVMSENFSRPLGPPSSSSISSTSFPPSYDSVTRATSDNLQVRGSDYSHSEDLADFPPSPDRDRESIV

In the case of `CC1(Oc2ccc(S(=O)(=O)Nc3nccs3)cc2Cl)CCN(Cc2cccc(C(F)F)c2)CC1` [Example 21, 3-chloro-4-((1-(3-(difluoromethyl)benzyl)-4-methylpiperidin-4-yl)oxy)-N-(thiazol-2-yl)benzenesulfonamide], the results for the half-maximal inhibitory concentration (IC50) on NaV1.5, on NaV1.6 and against NaV1.1 were 4.69 µM, 3.18 µM and 3.15 µM, respectively.

For `O=S(=O)(Nc1nccs1)c1ccc(OC2CCN(Cc3ccc(F)cc3)CC2)c(Cl)c1` [Example 22, 3-chloro-4-((1-(4-fluorobenzyl)piperidin-4-yl)oxy)-N-(thiazol-2-yl)benzenesulfonamide 2,2,2-trifluoroacetate], the figures for the IC50 on NaV1.5, at NaV1.6 and against NaV1.1 were 16.1 µM, 3.64 µM and 14.8 µM, respectively.

Regarding `O=S(=O)(Nc1nccs1)c1ccc(OC2CCN(Cc3ccc(C(F)(F)F)cc3)CC2)c(Cl)c1` [Example 23, 3-chloro-N-(thiazol-2-yl)-4-((1-(4-(trifluoromethyl)benzyl)piperidin-4-yl)oxy)benzenesulfonamide 2,2,2-trifluoroacetate], the half-maximal inhibitory concentration (IC50) at NaV1.5 was 29.6 µM; on NaV1.6, above 30 µM; on NaV1.1 it was above 30 µM.

For the compound `Cc1ccc(CN2CCC(Oc3ccc(S(=O)(=O)Nc4nccs4)cc3Cl)CC2)cc1` [Example 24, 3-chloro-N-(thiazol-2-yl)-4-((1-(4-methylbenzyl)piperidin-4-yl)oxy)benzenesulfonamide 2,2,2-trifluoroacetate], the IC50 worked out at 13.5 µM at NaV1.5, 2.54 µM at NaV1.6 and 12.6 µM against NaV1.1.

Take `CN(c1ccc(S(=O)(=O)Nc2ncns2)cc1Cl)[C@H]1CCN(Cc2cccc(Cl)c2)C1` [Example 30, (S)-3-chloro-4-((1-(3-chlorobenzyl)pyrrolidin-3-yl)(methyl)amino)-N-(1,2,4-thiadiazol-5-yl)benzenesulfonamide]: the values for the concentration for half-maximal inhibition (IC50) on NaV1.5, on NaV1.6 and on NaV1.1 were 18.7 µM, 0.021 µM and 7.97 µM, respectively.

Consider `CN(c1ccc(S(=O)(=O)Nc2ncns2)cc1Cl)[C@H]1CCN(Cc2cccc(Cl)c2F)C1` [Example 32, (S)-3-chloro-4-((1-(3-chloro-2-fluorobenzyl)pyrrolidin-3-yl)(methyl)amino)-N-(1,2,4-thiadiazol-5-yl)benzenesulfonamide], for which the results for the IC50 on NaV1.5, at NaV1.6 and against NaV1.1 were 7.41 µM, 0.047 µM and 6.55 µM, respectively.

As to `Cc1cccc(CN2CC[C@H](N(C)c3ccc(S(=O)(=O)Nc4ncns4)cc3Cl)C2)c1F` [Example 34, (S)-3-chloro-4-((1-(2-fluoro-3-methylbenzyl)pyrrolidin-3-yl)(methyl)amino)-N-(1,2,4-thiadiazol-5-yl)benzenesulfonamide 2,2,2-trifluoroacetate], the IC50 on NaV1.5 was above 30 µM; on NaV1.6 it was 0.039 µM; at NaV1.1, 19.9 µM.

For `Cc1ccc(F)c(CN2CC[C@H](N(C)c3ccc(S(=O)(=O)Nc4ncns4)cc3Cl)C2)c1` [Example 35, (S)-3-chloro-4-((1-(2-fluoro-5-methylbenzyl)pyrrolidin-3-yl)(methyl)amino)-N-(1,2,4-thiadiazol-5-yl)benzenesulfonamide], the values for the IC50 at NaV1.5, on NaV1.6 and on NaV1.1 were above 30 µM, 0.021 µM and 15.9 µM, respectively.

Regarding `CCN(c1ccc(S(=O)(=O)Nc2ncns2)cc1Cl)[C@H]1CCN(Cc2cccc(C)c2)C1` [Example 37, (S)-3-chloro-4-(ethyl(1-(3-methylbenzyl)pyrrolidin-3-yl)amino)-N-(1,2,4-thiadiazol-5-yl)benzenesulfonamide], the IC50 is above 30 µM at NaV1.5, 0.195 µM at NaV1.6 and above 30 µM against NaV1.1.

In the case of `CN(c1cc(F)c(S(=O)(=O)Nc2nccs2)cc1Cl)[C@H]1CCN(Cc2ccccc2)C1` [Example 39, (S)-4-((1-benzylpyrrolidin-3-yl)(methyl)amino)-5-chloro-2-fluoro-N-(thiazol-2-yl)benzenesulfonamide bis(trifluoroacetic acid) salt], the half-inhibitory concentration (IC50) turned out to be 13.1 µM on NaV1.5, 0.732 µM on NaV1.6 and 4.96 µM against NaV1.1.

For the compound `C[C@@H](c1ccccc1)N1CC[C@H](N(C)c2ccc(S(=O)(=O)Nc3nccs3)cc2Cl)C1` [Example 42, 3-chloro-4-(methyl((S)-1-((S)-1-phenylethyl)pyrrolidin-3-yl)amino)-N-(thiazol-2-yl)benzenesulfonamide], the concentration for half-maximal inhibition (IC50) at NaV1.5 amounted to 9.11 µM; at NaV1.6 it was 0.155 µM; against NaV1.1 it was 4.38 µM.

Regarding `C[C@H](c1ccccc1)N1CC[C@H](N(C)c2cc(F)c(S(=O)(=O)Nc3cccc(F)n3)cc2Cl)C1` [Example 45, 5-chloro-2-fluoro-N-(6-fluoropyridin-2-yl)-4-(methyl((S)-1-((R)-1-phenylethyl)pyrrolidin-3-yl)amino)benzenesulfonamide 2,2,2-trifluoroacetate], the IC50 at NaV1.5 was above 30 µM; on NaV1.6, 1.98 µM; on NaV1.1, 11.2 µM.

As for `COc1ccc(CN2CCC(Oc3ccc(S(=O)(=O)Nc4nccs4)cc3Cl)CC2)cc1` [Example 48, 3-chloro-4-((1-(4-methoxybenzyl)piperidin-4-yl)oxy)-N-(thiazol-2-yl)benzenesulfonamide], the concentration for half-maximal inhibition (IC50) was 7.82 µM on NaV1.5, 3.67 µM at NaV1.6 and 10.5 µM against NaV1.1.

Consider `O=S(=O)(Nc1nccs1)c1ccc(OC2CCN(C3CCc4ccccc43)CC2)c(Cl)c1` (stereo not drawn) [Example 49, 3-chloro-4-((1-(2,3-dihydro-1H-inden-1-yl)piperidin-4-yl)oxy)-N-(thiazol-2-yl)benzenesulfonamide 2,2,2-trifluoroacetate], for which the IC50 on NaV1.5 was 5.4 µM; at NaV1.6, 0.491 µM; against NaV1.1 it was 5.59 µM.

On to `O=S(=O)(Nc1nccs1)c1ccc(NC2CN(Cc3ccccc3)C2)c(Cl)c1` [Example 50, 4-((1-benzylazetidin-3-yl)amino)-3-chloro-N-(thiazol-2-yl)benzenesulfonamide 2,2,2-trifluoroacetate], for which the IC50 on NaV1.5 turned out to be 5.71 µM; at NaV1.6, 1.08 µM; against NaV1.1, 4.15 µM.

Regarding `O=S(=O)(Nc1nccs1)c1ccc(OC2CCN(Cc3ccc4ccccc4c3)CC2)c(Cl)c1` [Example 51, 3-chloro-4-((1-(naphthalen-2-ylmethyl)piperidin-4-yl)oxy)-N-(thiazol-2-yl)benzenesulfonamide 2,2,2-trifluoroacetate], the IC50 is 3.48 µM on NaV1.5, 6.58 µM at NaV1.6 and 17.6 µM against NaV1.1.

In the case of `CC(c1ccccc1)N1CCC(Oc2cc(F)c(S(=O)(=O)Nc3nccs3)cc2Cl)CC1` (stereo not drawn) [Example 54, 5-chloro-2-fluoro-4-((1-(1-phenylethyl)piperidin-4-yl)oxy)-N-(thiazol-2-yl)benzenesulfonamide], the IC50 on NaV1.5 stood at 16.7 µM; on NaV1.6, 0.156 µM; on NaV1.1, 9.93 µM.

On to `C[C@H](c1ccccc1)N1CCC(Oc2cc(F)c(S(=O)(=O)Nc3nccs3)cc2Cl)CC1` [Example 56, (R)-5-chloro-2-fluoro-4-((1-(1-phenylethyl)piperidin-4-yl)oxy)-N-(thiazol-2-yl)benzenesulfonamide 2,2,2-trifluoroacetate], for which the results for the IC50 on NaV1.5, on NaV1.6 and against NaV1.1 were 10.1 µM, 0.392 µM and 12.5 µM, respectively.

`CC(C)(c1ccccc1)N1CCC(Oc2cc(F)c(S(=O)(=O)Nc3nccs3)cc2Cl)CC1` [Example 60, 5-chloro-2-fluoro-4-((1-(2-phenylpropan-2-yl)piperidin-4-yl)oxy)-N-(thiazol-2-yl)benzenesulfonamide 2,2,2-trifluoroacetate]: the half-maximal inhibitory concentration (IC50) on NaV1.5 amounted to 15.9 µM; at NaV1.6, 0.452 µM; at NaV1.1 it was 13.3 µM.

`O=S(=O)(Nc1nccs1)c1ccc(OC2CCN(Cc3ccncc3)CC2)c(Cl)c1` [Example 63, 3-chloro-4-((1-(pyridin-4-ylmethyl)piperidin-4-yl)oxy)-N-(thiazol-2-yl)benzenesulfonamide]: the IC50 was above 30 µM at NaV1.5, 27.7 µM at NaV1.6 and above 30 µM against NaV1.1.

For the compound `O=S(=O)(Nc1nccs1)c1ccc(OC2CCN(Cc3cccnc3)CC2)c(Cl)c1` [Example 64, 3-chloro-4-((1-(pyridin-3-ylmethyl)piperidin-4-yl)oxy)-N-(thiazol-2-yl)benzenesulfonamide], the 50% inhibitory concentration (IC50) on NaV1.5 was above 30 µM; at NaV1.6 it was 5.63 µM; against NaV1.1, above 30 µM.

`O=S(=O)(Nc1nccs1)c1ccc(N[C@@H]2CCN(Cc3cccc(Cl)c3)C2)c(Cl)c1` [Example 69, (R)-3-chloro-4-((1-(3-chlorobenzyl)pyrrolidin-3-yl)amino)-N-(thiazol-2-yl)benzenesulfonamide]: the IC50 on NaV1.5 turned out to be 6.15 µM; on NaV1.6, 0.697 µM; at NaV1.1, 1.76 µM.

As to `Cc1cccc(CN2CC[C@@H](Nc3ccc(S(=O)(=O)Nc4nccs4)cc3Cl)C2)c1` [Example 70, (R)-3-chloro-4-((1-(3-methylbenzyl)pyrrolidin-3-yl)amino)-N-(thiazol-2-yl)benzenesulfonamide], the 50% inhibitory concentration (IC50) at NaV1.5 is 4.2 µM; at NaV1.6, 0.664 µM; against NaV1.1, 3.18 µM.

For `O=S(=O)(Nc1nccs1)c1ccc(OC2CN(Cc3ccccc3)C2)c(Cl)c1` [Example 76, 4-((1-benzylazetidin-3-yl)oxy)-3-chloro-N-(thiazol-2-yl)benzenesulfonamide], the IC50 was found to be 16.8 µM at NaV1.5, 4.7 µM on NaV1.6 and 11.4 µM against NaV1.1.

On to `O=S(=O)(Nc1cccc(F)n1)c1cc(Cl)c(OC2CCN(Cc3ccccc3)CC2)cc1F` [Example 78, 4-((1-benzylpiperidin-4-yl)oxy)-5-chloro-2-fluoro-N-(6-fluoropyridin-2-yl)benzenesulfonamide 2,2,2-trifluoroacetate], for which the IC50 worked out at 2.86 µM at NaV1.5, 6.6 µM on NaV1.6 and 8.17 µM against NaV1.1.
